Assay results from patent publication US9345755B2, “Composition and methods for treating melanoma” (University of Virginia Patent Foundation, priority 2012, dated 2016).
“Also recorded” adds a separate entry of the source. Ends that are not written are not given here.

Experiments:
[1] = test system: high-risk ovarian cancer patients; details: human, in vivo; cited from earlier work
[2] = Stability of peptide against alkaline hydrolysis at pH 12; type: physicochemical; details: pH 12, NaOH
Excerpt: It will be sterile-filtered.

Experimental for physchem: Vaccines are prepared by solubilization of each peptide in aqueous solutions, then sterile filtration, mixing, and vialing at 600 mcg per vial.
It is then sterile-filtered. […] It is then sterile-filtered.
The solubilization regimen was difficult to establish for the 8 long peptides.
These 3 sterile solutions will be combined and will be brought up to a concentration of 600 mcg/ml of each peptide using sterile water, lactated ringer's solution or normal saline solution. The pH of the mixture will be about 8-8.50, for a concentration of 600 micrograms per ml of each peptide.

| solubility (physchem) | Substance | also measured |
| --- | --- | --- |
| 10 mg/mL | LLHLAVIGALLAVGATKVPRNQDWLGVSRQL [Peptide 6] |  |
| 20 mg/mL | VPLAHSSSAFTIMDQVPFSVSVSQLRALDG [Peptide 4] |  |
|  | NY-ESO-179-108: long peptide, residues 79-108 of cancer-testis antigen NY-ESO-1 (GARGPESRLLEFYLAMPFATPMEAELARRS; UniProt P78358 79-108, looked up, fragment) | CD4 T cell responses after vaccination [1]: induces CD4 T cell responses |
|  | SMHNALHIYMDGTMSQVQGSANDPIFLLHH [Peptide 3] | stability (hydrolysis/degradation) of peptide [2]: stable at this pH and is not hydrolyzed or degraded; also recorded: hydrolysis is not an issue and the peptide is intact |
